Peptide text beside a SMILES is read from it.

In publication PMC4829254, “Complex Minigene Library Vaccination for Discovery of Pre-Erythrocytic Plasmodium T Cell Antigens” (PLoS ONE, 2016) one finds Kd data, which are given here for two compounds.

This experiment addresses T1, H2-K^d (Mus musculus, UniProt P01902).
T1 construct: expressed in transfected cells; host or cells: RMA/S lymphoma cell line expressing H2-K^d
T1 sequence (P01902 22-368): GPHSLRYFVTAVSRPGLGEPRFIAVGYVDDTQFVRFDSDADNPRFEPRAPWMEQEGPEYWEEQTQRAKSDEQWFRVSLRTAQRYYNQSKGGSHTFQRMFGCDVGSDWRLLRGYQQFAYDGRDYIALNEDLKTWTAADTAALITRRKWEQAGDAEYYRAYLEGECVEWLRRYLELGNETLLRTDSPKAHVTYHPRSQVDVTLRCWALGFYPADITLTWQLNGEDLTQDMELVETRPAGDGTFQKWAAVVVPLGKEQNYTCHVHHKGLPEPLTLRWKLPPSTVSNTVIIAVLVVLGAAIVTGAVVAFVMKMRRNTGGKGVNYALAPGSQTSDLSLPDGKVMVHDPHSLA
T1 sequence (P01887 21-119 partner): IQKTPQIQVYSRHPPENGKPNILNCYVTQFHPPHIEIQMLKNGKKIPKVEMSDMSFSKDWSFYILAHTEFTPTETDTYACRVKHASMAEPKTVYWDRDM
Nature of the experiment: MHC binding assay (RMA/S cells expressing H2-K^d). Details: species or system murine. The settings on record: H2-K^d stabilization, read-out: apparent Kd. The protocol:
RMA/S cells expressing H2-K^d were used to test MHC binding as described.
The affinity of SYQKSINNI for H2-K^d was determined using an RMA/S lymphoma cell line expressing H2-Kd as previously described.
Fig 4 The PyMDH epitope binds to murine H2-K^d. RMA/S cells expressing H2-K^d were incubated with peptides for PyCSP (squares), PyMDH (circles) or non-specific peptide. PyCSP and PyMDH peptides stabilized H2-K^d, indicative of specific MHC binding. Error bars indicate the 95% confidence interval.

Regarding `CC[C@H](C)[C@H](NC(=O)[C@H](CC(N)=O)NC(=O)[C@H](CC(N)=O)NC(=O)[C@@H](NC(=O)[C@H](CO)NC(=O)[C@H](CCCCN)NC(=O)[C@H](CCC(N)=O)NC(=O)[C@H](Cc1ccc(O)cc1)NC(=O)[C@@H](N)CO)[C@@H](C)CC)C(=O)O` [PyMDH peptide] (H-SYQKSINNI-OH), the Kd worked out at 11.6 nM.
As to `CC[C@H](C)[C@H](NC(=O)[C@H](CCC(N)=O)NC(=O)[C@H](CCC(=O)O)NC(=O)[C@H](C)NC(=O)[C@H](CO)NC(=O)[C@@H]1CCCN1C(=O)[C@@H](NC(=O)[C@H](Cc1ccc(O)cc1)NC(=O)[C@@H](N)CO)C(C)C)C(=O)O` [PyCSP peptide] (H-SYVPSAEQI-OH), the Kd was determined as 9.6 nM.
